# Test results: US20070238158A1, “Method for enhancing enzyme activity at elevated temperature” (The Institute of Physical and Chemical Research, priority 1996, published 2007)
# How the values were obtained:
# Assay type in all cases: biochemical
# [1] = target: T1, reverse transcriptase Superscript II (Moloney murine leukemia virus, UniProt P03355, D1183G/D1242N/E1221Q); assay: Reverse transcription activity of Superscript II at elevated temperature (cDNA synthesis from in vitro transcribed RNA, denaturing agarose electrophoresis, autoradiography); settings: for electrophoretic pattern: full length cDNAs versus short products from prematurely terminated synthesis: reaction at 60° C., 20% of the substance and 20% glycerol in buffer (Lane 3 condition)
# T1 construct: Superscript II is known as a reverse transcriptase (RNA-dependent DNA polymerase)
# Procedure: To examine reverse transcription activity of Superscript II at an elevated temperature, cDNAs were synthesized using RNAs transcribed in vitro by T7 RNA polymerase as template and the products were evaluated. By using RNAs as a template transcribed in vitro and evaluating the products by electrophoresis, reverse transcription efficiencies of the samples can be compared with one another and thereby non-specific transcription termination which leads to premature termination of reverse transcription and/or reduction of reaction efficiency can be evaluated. The template RNAs were prepared by transcribing pBluescript II SK, which had been cleaved into a linear form with a restriction enzyme NotI, with T7 RNA polymerase in vitro. This reaction was initiated from T7 promoter described in the instruction of pBluescript II SK.
# As a control, the following standard buffer condition was used: 50 mM Tris-HCl, pH 8.3, 75 mM KCl, 3 mM MgCl2, 10 mM dithiothreitol, each 0.75 mM of dNTPs (dATP, dGTP, dCTP and dTTP).
# In the above standard buffer condition, 1 μg of template RNA, 400 ng of primer (20mer SK primer, […]) and 200 units of Superscript II were prepared and the final volume was adjusted to 20 μl. 0.2 μl of [α-^32P] dGTP was used for labeling of reverse transcription products. The RNA and the primer were incubated at 65° C. before the other substrates were added. Then, the reaction was performed at 42° C. for 1 hour. The reaction products were subjected to denatured agarose electrophoresis and electrophoretic patterns were examined by autoradiography to evaluate recoveries of full length cDNAs and rates of short products obtained from incomplete elongation. The results are shown in Lane 1 of FIG. 1.
# The following buffer condition for reverse transcription was used to verify that addition of oligosaccharide stabilizes the enzyme reaction: 50 mM Tris-HCl, pH 8.3, 75 mM KCl, 3 mM MgCl2, 10 mM dithiothreitol, each 0.75 mM of dNTPs (dATP, dGTP, dCTP, dTTP), 20% (w/v) trehalose and 20% (v/v) glycerol.
# 1 μg of template RNA, 400 ng of primer (20 mer SK primer) and 200 units of Superscript II were reacted in 24 μl of aqueous solution under the above buffer condition. 0.2 μl of [α-^32P] dGTP was used for labeling of reverse transcription products. […] The primer and the template RNAs were annealed at 37° C. for 2 minutes and the enzyme activity was measured at 60° C.
# The reaction products were subjected to denaturing agarose electrophoresis as described above, and electrophoretic patterns were examined by autoradiography to evaluate recoveries of full length cDNAs and rates of short products obtained from incomplete elongation.
# [2] = tested on: restriction enzyme Sty I; assay: Sty I restriction enzyme digestion of λ DNA at 37-60° C. (agarose gel, image analysis of 1 kbp band); settings: suitable concentration; betaine 0-0.6M or sarcosine 0-3.6M; 37, 45, 50, 55 or 60° C. for 1 hour
# Procedure: Reaction solutions (20 μl each) containing a restriction enzyme, Sty I 0.5 units, its substrate, λ DNA 0.5 μg and betaine 0-0.6M or sarcosine 0-3.6M were incubated at 37, 45, 50, 55 or 60° C. for 1 hour. In order to prevent initiation of enzyme reaction before the incubation, the samples were quickly prepared on ice. Upon incubation, 0.25% bromophenol blue, 0.26% XC (xylene cyanol), 30% glycerol and 120 mM EDTA (4 μl) was added to the reaction solution to terminate the reaction. The resulting solution was heated at […] for 5 minutes to melt cos sites and subjected to electrophoresis using 0.8% agarose gel containing 0.05% EtBr.
# After electrophoresis, image analysis of the gels was conducted. Enzyme activity was represented by comparing strength of bands appeared at 1 kbp (with arrow). Regarding the samples using betaine, the standard (100) is the band strength obtained from the sample using 0 M of betaine and incubated at 37° C. Regarding the samples using sarcosine, the standard (100) is the band strength obtained from the sample using 0 M of sarcosine and incubated at 37° C.
# [3] = target: T1, reverse transcriptase Superscript II; assay: Reverse transcription activity of Superscript II at elevated temperature (cDNA synthesis from in vitro transcribed RNA, denaturing agarose electrophoresis, autoradiography)
Compound,electrophoretic pattern: full length cDNAs versus short products from prematurely terminated synthesis [1],further results
Triton X100,–,"amount of incomplete reverse transcription products when added to the Lane 3 condition ([1]; 60° C., 0.05% Triton X100 plus 20% trehalose and 20% glycerol (Lane 4)): further reduced; effect on enzyme activity when added to the Lane 3 condition ([1]; 60° C., additive plus 20% trehalose and 20% glycerol, BSA 0.125 μg/μl (Lane 5), Triton X100 0.05% (Lane 4)): the whole activity of the reverse transcriptase was slightly reduced"
C[N+](C)(C)CC(=O)O [betaine],the amount of products obtained from prematurely terminated synthesis became very small and full length products were synthesized,thermal activation of restriction enzyme (relative activity of Sty I) [2]: thermally activated
CNCC(=O)O [sarcosine],–,thermal activation of restriction enzyme (relative activity of Sty I) [2]: thermally activated
OC[C@H]1O[C@H](O[C@H]2[C@H](O)[C@@H](O)C(O)O[C@@H]2CO)[C@H](O)[C@@H](O)[C@@H]1O (mixture of isomers) [maltose],the amount of products obtained from prematurely terminated synthesis became very small and full length products were synthesized,–
OC[C@H]1O[C@H](O[C@H]2O[C@H](CO)[C@@H](O)[C@H](O)[C@H]2O)[C@H](O)[C@@H](O)[C@@H]1O [trehalose],the amount of products obtained from prematurely terminated synthesis became very small and full length products were synthesized,"Superscript II activity compared with control reaction in standard buffer ([3]; normal temperature (42° C.), 20% (w/v) trehalose and 20% (v/v) glycerol): higher activity than the control reaction; electrophoretic pattern: products from premature termination of reverse transcription ([3]; reaction at 42° C., 20% trehalose and 20% glycerol (Lane 2)): products resulted from premature termination as mentioned above were also observed"
O=C(CO)[C@@H](O)[C@H](O)[C@H](O)CO [levulose],the amount of products obtained from prematurely terminated synthesis became very small and full length products were synthesized,–
OC[C@@H](O)[C@H](O)[C@@H](O)CO [xylitol],the amount of products obtained from prematurely terminated synthesis became very small and full length products were synthesized,–
OC[C@@H](O)[C@@H](O)[C@H](O)[C@@H](O)CO [sorbitol],the amount of products obtained from prematurely terminated synthesis became very small and full length products were synthesized,–
OC[C@@H](O)C(O)[C@H](O)CO [arabitol],the amount of products obtained from prematurely terminated synthesis became very small and full length products were synthesized,–
